Measurements reported in publication PMC8699189 (Biomolecules, 2021).

Target: T1, MavL(42-435) (Legionella pneumophila, UniProt Q5ZSJ1)
T1 construct: gene lpg2526
Conditions: 15 mM Tris-HCl pH 8.0, 50 mM NaCl, 20 °C; 300 µM ligand into 30 µM protein

T1 sequence (Q5ZSJ1 42-435 limits assumed): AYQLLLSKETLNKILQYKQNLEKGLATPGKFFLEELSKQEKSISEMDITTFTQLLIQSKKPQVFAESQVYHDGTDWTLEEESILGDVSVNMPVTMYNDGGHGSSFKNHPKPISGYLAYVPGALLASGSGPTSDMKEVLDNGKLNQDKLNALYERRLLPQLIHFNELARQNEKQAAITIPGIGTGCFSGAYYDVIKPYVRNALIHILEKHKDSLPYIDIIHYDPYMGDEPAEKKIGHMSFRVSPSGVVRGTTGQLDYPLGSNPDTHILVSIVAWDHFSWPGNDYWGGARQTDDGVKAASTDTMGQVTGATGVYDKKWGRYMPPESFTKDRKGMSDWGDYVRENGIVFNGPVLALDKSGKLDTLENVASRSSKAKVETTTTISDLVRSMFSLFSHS

**Q.** Which Kd does the source give for Nc1ncnc2c1ncn2[C@@H]1O[C@H](COP(=O)(O)OP(=O)(O)OC[C@H]2OC(O)[C@H](O)[C@@H]2O)[C@@H](O)[C@H]1O (stereo partly shown) [ADP-ribose] here?
**A.** 13 µM
